The values that follow come from article PMC9655618 (Cancers, 2022).

In data set [1] the test system is T47D cells. Nature of the data set: MTT cell viability assay. Type of data set: cell-based, human. The conditions noted are these: Homo sapiens, T47D, 72 h, 10%FBS growth media. On the procedure:
Straightforward, the tetrazolium salt 3-(4,5-methyltiazol-2yl-)-2,5diphenyl-tetrazolium bromide (MTT) (Applichen, Darmstadt, Germany) was added to cells, incubated for 2–4 h at 37 °C, and lysed in 10% SDS. The mitochondrial metabolization of the tetrazolium salt was determined by the analysis of the optical density at 595 nm, measured with the iMark microplate Reader (Bio–Rad, Irvine, CA, USA).
A general note: Tetrazolium assays rely on reduction of a dye to a coloured formazan, in cell work by metabolically active cells.

Data set [2] deals with T47D cells. Nature of the data set: Real-time monitoring of 2D cell growth (IncuCyte). Type of data set: cell-based. The conditions noted are these: Homo sapiens, 120 h, complete estrogenic media (10%FBS), 5 days, AUC.
Data set [3] relates to alkaline phosphatase (ALP) activity in Ishikawa cells. Put plainly: Alkaline phosphatase assay. Type of data set: cell-based, human. The note with it: for effect on E2-induced ALP activity: E2 10 nM, 48 h and 72 h. As to the method: Human endometrium cells ([…]) were cultured in MEM without phenol red with Earle's Salts culture, which was supplemented with estrogen-deprived 10 DCC-FBS du-ring 5 days. […] Cells were washed with ice-cold PBS, and Alkaline Phosphatase (ALP) activity was measured by using ALP Assay Kit (Abcam, Cambridge, MA, USA). The substrate p-nitrophenyl phosphate (pNPP) and the ALP enzyme were used to detect ALP activity by the analysis of the optical density at 405 nm in the iMark microplate Reader (Bio-Rad, Irvine, CA, USA). […] Protein concentration was quantified with the bicinchoninic acid assay (BCA) kit (Bio-Rad).

The test system of a further data set is VERO cells. Nature of the data set: MTT cell viability assay. The class given is cell-based, monkey. The conditions noted are these: Primates, Vero, 72 h, 10%FBS growth media. On the procedure: Straightforward, the tetrazolium salt 3-(4,5-methyltiazol-2yl-)-2,5diphenyl-tetrazolium bromide (MTT) (Applichen, Darmstadt, Germany) was added to cells, incubated for 2–4 h at 37 °C, and lysed in 10% SDS.

Data set [4] has as its target T1, ERα protein level in T47D cells (Homo sapiens, UniProt P03372).
T1 construct: from whole-cell extracts of T47D cells; endogenous in cells; host or cells: T47D
Put plainly: Immunoblotting. Type of data set: cell-based. The conditions noted are these: E2-non depleted T47D cells, 24, 48 and 72 h. On the procedure: (§1) Then, they were washed with ice-cold PBS supplemented with 1 mM ortovanadate and lysed with RIPA buffer containing protease and phosphatase inhibitors (Thermo Fisher Scientific, Waltham, MA, USA). Equal protein amounts were analyzed by SDS–PAGE, and transferred to nitrocellulose membranes (Thermo Fisher Scientific, Waltham, MA, USA), blocked with Tris-buffered saline/0.05% Tween 20 (TBS-T) containing 5% blotto (Merck, Darmstadt, Germany) or 5% BSA for total and phosphorylated proteins, respectively. Immunoblotting was carried out with mouse anti-ERα F-10 (Santa Cruz Biotech, Santa Cruz, CA, USA), rabbit total anti-STAT5 (Cell Signaling Technology, Leiden, The Netherlands) or mouse anti-polyubiquitin (EMD Millipore, Burlington, MA, USA). After washing, membranes were incubated with horseradish peroxidase-conjugated secondary antibodies (Bio-Rad) for 1 h at room temperature. The β-actin antibody (Santa Cruz Biotech, CA, USA) was used as the loading control. Finally, protein bands were visualized by using Clarity™ Western ECL Substrate (Bio-Rad) in the ChemiDoc XRS system (Bio-Rad) and were analyzed with Quantity One software (Bio-Rad).
(In general: A western blot detects proteins with antibodies after separation by electrophoresis.)

The subject of another data set is MCF-7 cells. Put plainly: Real-time monitoring of 2D cell growth (IncuCyte). Type of data set: cell-based. The note with it: Homo sapiens, MCF7, 120 h; complete estrogenic media (10%FBS), 5 days, AUC. On the procedure: (§2) To monitor long-term growth, human ER+ BC (T47-D, MCF-7, MCF-7/BUS), ER+ endometrial (Ishiwaka, High Point, NC, USA), or non-malignant breast (MCF-10A) cells were seeded at 3000–6000 cells per well. […] When indicated, cells were estrogen-deprived in a 10DCC-FBS supplemented medium for one week. […] Cytotoxicity was monitored by using YOYO-1 (Invitrogen, Waltham, MA, USA). Cell proliferation and cytotoxicity were monitored by sequential real-time microphotographs in an IncuCyte HD real-time imaging system (Essen BioScience, Hertfordshire, UK) for 5–10 days. The area under the curve (AUC) was then analyzed to know both the kinetics and dose-effect relationships. […] Next, cells were treated with VEH (0.05% DMSO) or test compounds for 5–10 days. Spheroid size and cell cytotoxicity were recorded with the Incucyte SX5 Live-Cell Analysis Instrument (Sartorius AG, Göttingen, Germany). To calculate the spheroid growth area, confluence measurements were taken considering the largest brightfield object area (µm^2). Cytotoxicity was monitored by using YOYO-1 (Essen Bioscience, Hertfordshire, UK).

Data set [5] deals with total STAT5 protein level in T47D cells. Put plainly: Immunoblotting. The conditions noted are these: 24–72 h. The class given is cell-based, human. On the procedure:
as §1

For data set [6], the system named is T47D estrogen-depleted cells. Put plainly: E2-induced proliferation of estrogen-depleted cells (AUC of growth kinetics). The class given is cell-based. The note with it: E2-depleted conditions. On the procedure: as §2
Data set [7] addresses T2, ERα protein in T47D E2-deprived cells (Homo sapiens, UniProt P03372).
T2 construct: ERα protein expression were also explored in T47D E2-deprived BC cells; endogenous in cells; host or cells: T47D (steroid-deprived)
Nature of the data set: Immunofluorescence (confocal microscopy). The class given is cell-based. The note with it: 5 µM 24 h, then E2 1 nM 30 min. On the procedure:
T47D cells were seeded with steroid-deprived FBS (10% DCC-FBS) RPMI medium supplemented with L-Glutamine/HEPES/sodium pyruvate/PEST. Then, cells were seeded at 175,000 cells/well in 5% DCC-FBS in 6-well plates containing 22 × 22 mm coverslips (Menzelgläser, vWR, Radnor, PA, USA). […] After this, cells were washed with PBS, fixed in 4% paraformaldehide (PFA; Sigma-Aldrich, St. Louis, MO, USA) for 15 min, blocked-permeabilized in PBS-0.5% BSA-0.1% Triton X-100 (Thermo Scientific, Waltham, MA, USA) for 1 h, and, finally, incubated with mouse ERα (Santa Cruz Biotech, CA, USA) and rabbit β-catenin (C2206 Sigma-Aldrich, St. Louis, MO, USA) primary antibodies in the same blocking solution overnight at 4 °C within a hand-made humid chamber. After three washing with PBS-0.5% BSA-0.1% Triton X-100 (Thermo Scientific, Waltham, MA, USA), cells were incubated with anti-mouse Alexa fluor 488 (Life Technologies, CA, USA) or anti-rabbit Alexa 647 (Life Technologies, Carlsbad, CA, USA) secondary antibodies, containing DAPI (4′,6-diamidino-2-phenylindole; Sigma-Aldrich, St. Louis, MO, USA), for 1 h at room temperature. Finally, slides were mounted with Fluormount-G® (Thermo Fisher Scientific, Waltham, MA, USA), and cells were visualized using a confocal microscope Zeiss LSM 800 (Carl Zeiss AG, Jena, Germany). The fluorescent signal was quantified by using a segmentation method for image analysis.

Data set [8] in a line: Real-time monitoring of cell proliferation and cytotoxicity (YOYO-1). The conditions noted are these: human, Ishikawa cells (ER+ endometrial cancer cells). On the procedure:
as §2

In another data set the test system is Ishikawa cells. The data set is described as above. The note with it: for effect on growth of E2-depleted Ishikawa cells: 4-OHTAM 3 μM, compounds 5 µM, 7 days; for IC50: Homo sapiens, Ishikawa, 120 h, read-out: IC50, cell proliferation (AUC). On the procedure: as §2

Molecules are shown by their SMILES.

Broadly, the Emax is the size of the effect at its maximum, as opposed to the concentration needed. In general, EC50 refers to the concentration giving half of the maximal effect. For `Cc1ccc(C2=CC(O)(c3ccccc3)N(Cc3ccccc3)C2=O)cc1C` (centres unmarked) [compound 32, 1-benzyl-3-(3,4-dimethylphenyl)-5-hydroxy-5-phenyl-1H-pyrrol-2(5H)-one], the IC50 was 10.6 ± 0.58 µM in the data set on T47D cells [1]; 5.34 ± 2.47 µM in the data set on T47D cells [2]; 14.7 ± 1.31 µM in the data set on VERO cells; 1.52 ± 1.25 µM with MCF-7 cells; 2.1 µM in the data set on Ishikawa cells. The “effect on E2-induced ALP activity” value in data set [3] was “inhibited E2-induced ALP activity”. The Emax in data set [3] (Homo sapiens, Ishikawa, read-out: ALP activity, % of E2-induced maximal activity (Emax)) is 18%. Further, the “effect on ERα protein level” value in data set [4] is reported as “needed a longer time of cell exposure”. In addition, in [5], the “effect on total STAT5 protein level” value was “this effect was not provoked”. The “estrogenic effect on growth” value in [6] is on record as “did not increase the growth of ER+ BC cells”. Moreover, in data set [7], the “effect on ERα protein levels by confocal microscopy” value is “showed no effects”. Besides, the EC50 at 5 days in data set [8] is > 10 µM. For the same compound, in the data set with Ishikawa cells, the “effect on growth of E2-depleted Ishikawa cells” value was “this effect was not observed”.
As for `O=C1C(c2ccc([N+](=O)[O-])cc2)=CC(O)(c2ccccc2)N1Cc1ccccc1` (centres unmarked) [compound 35, 1-benzyl-5-hydroxy-3-(4-nitrophenyl)-5-phenyl-1H-pyrrol-2(5H)-one], the IC50 was determined as 5.31 ± 0.47 µM in the data set on T47D cells [1]; 6.98 ± 1.15 µM in the data set with T47D cells [2]; 9.61 ± 0.16 µM in the data set with VERO cells; 4.3 ± 0.77 µM in the data set on MCF-7 cells; 3.81 µM in the data set on Ishikawa cells. Further, the “effect on E2-induced ALP activity” value in [3] is recorded as “inhibited E2-induced ALP activity”. Moreover, the “ALP activity, % of E2-induced maximal activity (Emax)” value in data set [3] (absence of E2) is on record as “did not affect basal”. For the same compound, in data set [4], the “effect on ERα protein level” value was “dose-dependent (Figure 14B) decrease of ERα protein content”. In addition, in data set [5], the “effect on total STAT5 protein level” value is recorded as “this effect was not provoked”. For the same compound, the “estrogenic effect on growth” value in data set [6] is given as “did not increase the growth of ER+ BC cells”. For the same compound, in data set [7], the “effect on ERα protein levels by confocal microscopy” value was “significantly decreased ERα protein levels both in nuclei and cytoplasmic compartments”. This compound also had an EC50 at 5 days in [8] of 10 µM. Further, in the data set on Ishikawa cells, the “effect on growth of E2-depleted Ishikawa cells” value was “this effect was not observed”.
